In general, inhibition refers to the change of the read-out against control, counted positive when it falls.

Here are results for 21 compounds from patent US20250282736A1, “SMALL MOLECULE MODULATORS OF HUMAN PREGNANE X RECEPTOR” (ST. JUDE CHILDREN'S RESEARCH HOSPITAL, priority 2022, published 2025).

Data set [1] deals with T1, hPXR (Homo sapiens (Human), UniProt O75469). In words: hPXR binding assay. The note with it: for inhibition at 10 µM: read-out: Binding (% inhibition at 10 μM).
For data set [2], the target named is T1, hPXR. The data set can be described thus: cell-based hPXR antagonistic assay. The note with it: for inhibition at 10 µM: read-out: Antagonist (% inhibition at 10 μM); for Antagonist (% inhibition at 10 μM): SPA70 at 10 μM with rifampicin (5 μM) as 100% inhibition, rifampicin alone (5 μM) as 0%.
In data set [3] the target is T1, hPXR. In words: cell-based hPXR agonistic assay. As to conditions: for Agonist (% activation at 10 μM): rifampicin at 10 μM as 100% activation, DMSO (0.3%) as 0%.
Data set [4] has as its target T1, hPXR. The data set can be described thus: cell-based hPXR inverse agonistic assay. As to conditions: for inhibition at 10 µM: read-out: Inverse agonist (% inhibition at 10 μM).
The mark [5] stands for this setting: read-out: Binding (IC50/μM), hPXR binding assay.
Where [6] appears, read: read-out: Agonist (EC50/μM), cell-based hPXR agonistic assay.
The mark [7] stands for this setting: read-out: Antagonist (IC50/μM), cell-based hPXR antagonistic assay with rifampicin (5 μM).
Where [8] appears, read: read-out: Inverse agonist (IC50/μM), cell-based hPXR inverse agonistic assay.

Like-named read-outs stand apart in the source and are kept apart here. A value given as a limit tells only on which side of the number the result lay.

T1 sequence (O75469 whole entry): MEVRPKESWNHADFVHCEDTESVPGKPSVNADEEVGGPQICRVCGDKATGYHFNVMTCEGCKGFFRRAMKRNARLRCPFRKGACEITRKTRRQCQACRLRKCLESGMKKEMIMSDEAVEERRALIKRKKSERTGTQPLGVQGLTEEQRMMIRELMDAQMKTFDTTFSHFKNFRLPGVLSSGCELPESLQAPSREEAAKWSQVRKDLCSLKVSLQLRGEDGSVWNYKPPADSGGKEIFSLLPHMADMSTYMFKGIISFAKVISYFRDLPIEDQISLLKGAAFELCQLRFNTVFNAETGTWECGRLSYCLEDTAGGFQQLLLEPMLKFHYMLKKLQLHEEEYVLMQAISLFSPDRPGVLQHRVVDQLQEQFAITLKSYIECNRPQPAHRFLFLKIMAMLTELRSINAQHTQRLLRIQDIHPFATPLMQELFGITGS

`COc1ccc(OC)c(-n2nnc(C(=O)Nc3cc(C(C)(C)C)ccc3OC(=O)c3nnn(-c4cc(OC)ccc4OC)c3C)c2C)c1` [B3, 4-(tert-butyl)-2-(1-(2,5-dimethoxyphenyl)-5-methyl-1H-1,2,3-triazole-4-carboxamido)phenyl 1-(2,5-dimethoxyphenyl)-5-methyl-1H-1,2,3-triazole-4-carboxylate]: the IC50 at hPXR [1], at hPXR [2] and on hPXR [4] was above 30 µM each time. Besides, at hPXR [3], the EC50 is 0.59 µM. Further, on hPXR [3], the “Agonist (% activation at 10 μM)” value is given as “(55 ± 6)%”.
For the compound `COc1ccc(OC)c(-n2nnc(C(=O)Nc3cc(C(C)(C)C)ccc3OCCOCCOCCOCCO)c2C)c1` [B10], the inhibition at 10 µM at hPXR [1] is 62%; at hPXR [2], 102%; at hPXR [4] it was 95%. The IC50 on hPXR [1] (setting [5]) turned out to be 2.34 ± 0.57 µM; on hPXR [2], 1.92 ± 0.23 µM; on hPXR [4] it was 0.43 ± 0.14 µM. The EC50 on hPXR [3] is above 30 µM.
In the case of `COc1ccc(OC)c(-n2nnc(C(=O)Nc3cc(C(C)(C)C)ccc3OC(C)C)c2C)c1` [B12], the inhibition at 10 µM at hPXR [1] amounted to 88%; on hPXR [2], 107%; at hPXR [4], 119%. Further, the IC50 came to 0.021 ± 0.005 µM on hPXR [1] (setting [5]), 0.049 ± 0.01 µM against hPXR [2] and 0.0074 µM at hPXR [4]. The compound further came in with an EC50 on hPXR [3] above 30 µM.
As to `COc1ccc(OC)c(-n2nnc(C(=O)Nc3cc(C(C)(C)C)ccc3OCCCCCCCCI)c2C)c1` [B19], the inhibition at 10 µM at hPXR [1] came out at 68%; on hPXR [2] it was 86%; at hPXR [4], 95%. Further, the IC50 at hPXR [1] (setting [5]) is 0.5 ± 0.12 µM; at hPXR [2] it was 2.48 µM; on hPXR [4], 0.43 ± 0.14 µM. Also, the EC50 at hPXR [3] is above 30 µM.
In the case of `COc1ccc(OC)c(-n2nnc(C(=O)Nc3cc(C(C)(C)C)ccc3OCCCCCCCCOc3ccc(C(C)(C)C)cc3NC(=O)c3nnn(-c4cc(OC)ccc4OC)c3C)c2C)c1` [B20], the IC50 at hPXR [1], at hPXR [2] and at hPXR [4] was above 30 µM throughout. The compound also gave an EC50 on hPXR [3] above 30 µM.
In the case of `COc1ccc(OC)c(-n2nnc(C(=O)Nc3cc(C(C)(C)C)ccc3OCCCCN3CCN(C)CC3)c2C)c1` [B22, N-(5-(tert-butyl)-2-(4-(4-methylpiperazin-1-yl)butoxy)phenyl)-1-(2,5-dimethoxyphenyl)-5-methyl-1H-1,2,3-triazole-4-carboxamide], the figures for the IC50 at hPXR [1], on hPXR [2] and at hPXR [4] were above 30 µM, 6.09 ± 0.85 µM and 3.08 ± 0.55 µM, respectively. The inhibition at 10 µM at hPXR [2] was determined as 114%; at hPXR [4], 168%. For the same compound, on hPXR [3], the EC50 is above 30 µM.
Consider `COc1ccc(OC)c(-n2nnc(C(=O)Nc3cc(C(C)(C)C)ccc3OCCOCCOCCOCCOCCOCCOc3ccc(C(C)(C)C)cc3NC(=O)c3nnn(-c4cc(OC)ccc4OC)c3C)c2C)c1` [B23, N,N′-((3,6,9,12,15-pentaoxaheptadecane-1,17-diylbis(oxy))bis(3-(tert-butyl)-6,1-phenylene))bis(1-(2,5-dimethoxyphenyl)-5-methyl-1H-1,2,3-triazole-4-carboxamide)], for which the IC50 is above 30 µM at hPXR [1], above 30 µM on hPXR [2] and 16.7 ± 3.34 µM on hPXR [4]. At hPXR [3], this compound registered an EC50 above 30 µM. The inhibition at 10 µM on hPXR [4] was determined as 45%.
With `COc1ccc(OC)c(-n2nnc(C(=O)Nc3cc(C(C)(C)C)ccc3OCC(=O)OC(C)(C)C)c2C)c1` [B24, tert-butyl 2-(4-(tert-butyl)-2-(1-(2,5-dimethoxyphenyl)-5-methyl-1H-1,2,3-triazole-4-carboxamido)phenoxy)acetate], at hPXR [1], the inhibition at 10 µM amounted to 74%. Besides, the IC50 at hPXR [1] (setting [5]) is 0.5 ± 0.2 µM; at hPXR [2], above 30 µM; on hPXR [4] it was above 30 µM. In addition, the EC50 on hPXR [3] was 0.27 µM. Further, at hPXR [3], the “Agonist (% activation at 10 μM)” value is “(77 ± 1)%”.
In the case of `COc1ccc(OC)c(-n2nnc(C(=O)Nc3cc(C(C)(C)C)ccc3OCC(C)(C)C)c2C)c1` [B29], the figures for the inhibition at 10 µM at hPXR [1], at hPXR [2] and on hPXR [4] were 85%, 99% and 100%, respectively. Further, the values for the IC50 on hPXR [1] (setting [5]), against hPXR [2] and on hPXR [4] were 0.0177 ± 0.0031 µM, 0.18 µM and 0.026 µM, respectively. In addition, the EC50 on hPXR [3] is above 30 µM.
For `CCC(CC)Oc1ccc(C(C)(C)C)cc1NC(=O)c1nnn(-c2cc(OC)ccc2OC)c1C` [B31], the inhibition at 10 µM is 91% at hPXR [1], 105% at hPXR [2] and 111% on hPXR [4]. Besides, the IC50 turned out to be 0.0075 ± 0.0011 µM on hPXR [1] (setting [5]), 0.015 µM against hPXR [2] and 0.0016 µM at hPXR [4]. Moreover, on hPXR [3], the EC50 was above 30 µM.
In the case of `COc1ccc(OC)c(-n2nnc(C(=O)Nc3cc(C(C)(C)C)ccc3OCC(C)C)c2C)c1` [B32], the inhibition at 10 µM on hPXR [1] worked out at 81%; at hPXR [2], 96%; on hPXR [4] it was 89%. Moreover, the IC50 on hPXR [1] (setting [5]) was 0.018 µM; on hPXR [2] it was 0.26 µM. The compound also came in with an EC50 on hPXR [3] above 30 µM.
Take `CCCC(CC)Oc1ccc(C(C)(C)C)cc1NC(=O)c1nnn(-c2cc(OC)ccc2OC)c1C` (stereo not drawn) [B34, N-(5-(Tert-Butyl)-2-(Hexan-3-yloxy)Phenyl)-1-(2,5-Dimethoxyphenyl)-5-Methyl-1H-1,2,3-Triazole-4-Carboxamide]: the inhibition at 10 µM is 92% on hPXR [1], 108% at hPXR [2] and 147% at hPXR [4]. For the same compound, the values for the IC50 on hPXR [1] (setting [5]), at hPXR [2] and on hPXR [4] were 0.019 µM, 0.012 ± 0.003 µM and 0.0023 ± 0.0008 µM, respectively. This compound displayed an EC50 on hPXR [3] above 30 µM.
Consider `COc1ccc(OC)c(-n2nnc(C(=O)Nc3cc(C(C)(C)C)ccc3N)c2C)c1` [B37], for which the IC50 on hPXR [1], on hPXR [2] and at hPXR [4] was above 30 µM in each case. Further, at hPXR [3], the “Agonist (% activation at 10 μM)” value is on record as “(25 ± 7)%”. For the same compound, the EC50 at hPXR [3] (setting [6]) was determined as 0.9 ± 0.22 µM.
For `COc1ccc(OC)c(-n2nnc(C(=O)Nc3cc(C(C)(C)C)ccc3NC(C)=O)c2C)c1` [B38], on hPXR [1], the inhibition at 10 µM worked out at 60%. Moreover, the IC50 at hPXR [1] (setting [5]) is 3.22 ± 2.29 µM; at hPXR [2], above 30 µM; at hPXR [4], above 30 µM. Moreover, at hPXR [3], the “Agonist (% activation at 10 μM)” value is recorded as “(60 ± 13)%”. On hPXR [3] (setting [6]), the EC50 came to 0.99 ± 0.22 µM.
`COc1ccc(OC)c(-n2nnc(C(=O)Nc3ccc(NC(C)=O)c(C(C)(C)C)c3)c2C)c1` [C1, N-(4-acetamido-3-(tert-butyl)phenyl)-1-(2,5-dimethoxyphenyl)-5-methyl-1H-1,2,3-triazole-4-carboxamide]: on hPXR [1], the inhibition at 10 µM is 65%. Moreover, the values for the IC50 on hPXR [1] (setting [5]), on hPXR [2] and at hPXR [4] were 1.81 ± 0.52 µM, above 30 µM and above 30 µM, respectively. On hPXR [3], this compound displayed an EC50 of 1.96 ± 0.19 µM. The “Agonist (% activation at 10 μM)” value on hPXR [3] was “(50 ± 14)%”.
Turning to `COc1ccc(OC)c(-n2nnc(C(=O)Nc3ccc(N)c(C(C)(C)C)c3)c2C)c1` [C2, N-(4-amino-3-(tert-butyl)phenyl)-1-(2,5-dimethoxyphenyl)-5-methyl-1H-1,2,3-triazole-4-carboxamide], the inhibition at 10 µM on hPXR [1] worked out at 86%. Also, the IC50 on hPXR [1] (setting [5]) is 4.12 ± 1.4 µM; against hPXR [2], above 30 µM; on hPXR [4], above 30 µM. For the same compound, the “Agonist (% activation at 10 μM)” value on hPXR [3] is reported as “(33 ± 7)%”. Moreover, the EC50 on hPXR [3] (setting [6]) was determined as 0.28 µM.
Consider `CNc1cc(NC(=O)c2nnn(-c3cc(OC)ccc3OC)c2C)cc(C(C)(C)C)c1` [D2, N-(3-(tert-butyl)-5-(methylamino)phenyl)-1-(2,5-dimethoxyphenyl)-5-methyl-1H-1,2,3-triazole-4-carboxamide], for which the IC50 at hPXR [1] (setting [5]) worked out at 0.33 ± 0.11 µM; on hPXR [2] (setting [7]), 0.41 ± 0.13 µM; on hPXR [4] (setting [8]), 0.12 µM. Moreover, the “Antagonist (% inhibition at 10 μM)” value at hPXR [2] is “(109 ± 6)%”. This compound showed an EC50 on hPXR [3] above 30 µM.
For `COc1ccc(OC)c(-n2nnc(C(=O)Nc3cc(N(C)C)cc(C(C)(C)C)c3)c2C)c1` [D3, N-(3-(tert-butyl)-5-(dimethylamino)phenyl)-1-(2,5-dimethoxyphenyl)-5-methyl-1H-1,2,3-triazole-4-carboxamide] the same measures were 0.27 ± 0.04 µM, 0.34 µM, 0.11 µM, “(110 ± 3)%” and above 30 µM.
With `CCCCNc1cc(NC(=O)c2nnn(-c3cc(OC)ccc3OC)c2C)cc(C(C)(C)C)c1` [D4, N-(3-(tert-butyl)-5-(butylamino)phenyl)-1-(2,5-dimethoxyphenyl)-5-methyl-1H-1,2,3-triazole-4-carboxamide], the IC50 at hPXR [1] (setting [5]) amounted to 0.45 ± 0.12 µM; on hPXR [2] (setting [7]) it was 0.13 µM; at hPXR [4] (setting [8]), 0.039 ± 0.012 µM. At hPXR [3], the EC50 was above 30 µM.
For the compound `CCCCN(CCCC)c1cc(NC(=O)c2nnn(-c3cc(OC)ccc3OC)c2C)cc(C(C)(C)C)c1` [D5, N-(3-(tert-butyl)-5-(dibutylamino)phenyl)-1-(2,5-dimethoxyphenyl)-5-methyl-1H-1,2,3-triazole-4-carboxamide], the results for the IC50 on hPXR [1] (setting [5]), on hPXR [2] (setting [7]) and on hPXR [4] (setting [8]) were 0.5 ± 0.12 µM, 0.62 ± 0.28 µM and 0.15 µM, respectively. Also, at hPXR [2], the “Antagonist (% inhibition at 10 μM)” value is listed as “(82 ± 17)%”. The compound also returned an EC50 at hPXR [3] above 30 µM.
`COc1ccc(OC)c(-n2nnc(C(=O)Nc3cc(NC(=O)CCC(=O)O)cc(C(C)(C)C)c3)c2C)c1` [D6, 4-((3-(tert-butyl)-5-(1-(2,5-dimethoxyphenyl)-5-methyl-1H-1,2,3-triazole-4-carboxamido)phenyl)amino)-4-oxobutanoic acid]: the inhibition at 10 µM was 70% at hPXR [1], 25% at hPXR [2] and 48% at hPXR [4]. Moreover, the results for the IC50 on hPXR [1] (setting [5]), on hPXR [2] and on hPXR [4] were 1.26 µM, 22.1 ± 4.86 µM and 12.7 ± 4.69 µM, respectively. The EC50 at hPXR [3] was above 30 µM.
